± gives the expanded uncertainty stated by the source.
Experiment: mn = molality of the nth substance listed, in mol/kg
Settings: 101 kPa, Liquid, Vibrating tube method

Question: What does the source list for CC[C@H](C)[C@H](NC(=O)CN)C(=O)NCC(=O)O [glycyl-L-isoleucylglycine] + O?
Answer: mass density (288.15 K, m1 = 0.0284): 1001.07 ± 0.086 kg/m3; mass density (288.15 K, m1 = 0.03948): 1001.83 ± 0.086 kg/m3; mass density (288.15 K, m1 = 0.04918): 1002.5 ± 0.087 kg/m3; mass density (288.15 K, m1 = 0.05715): 1003.04 ± 0.086 kg/m3; mass density (288.15 K, m1 = 0.06935): 1003.87 ± 0.086 kg/m3; mass density (288.15 K, m1 = 0.07955): 1004.56 ± 0.086 kg/m3; mass density (288.15 K, m1 = 0.08916): 1005.21 ± 0.086 kg/m3; mass density (288.15 K, m1 = 0.1012): 1006.02 ± 0.087 kg/m3; mass density (303.15 K, m1 = 0.01893): 996.925 ± 0.086 kg/m3; mass density (303.15 K, m1 = 0.0328): 997.846 ± 0.09 kg/m3; mass density (303.15 K, m1 = 0.04344): 998.561 ± 0.092 kg/m3; mass density (303.15 K, m1 = 0.04827): 998.872 ± 0.085 kg/m3; mass density (303.15 K, m1 = 0.05907): 999.58 ± 0.084 kg/m3; mass density (303.15 K, m1 = 0.06849): 1000.21 ± 0.097 kg/m3; mass density (303.15 K, m1 = 0.07945): 1000.91 ± 0.086 kg/m3; mass density (303.15 K, m1 = 0.09989): 1002.23 ± 0.083 kg/m3; mass density (313.15 K, m1 = 0.02969): 994.182 ± 0.086 kg/m3; mass density (313.15 K, m1 = 0.04028): 994.873 ± 0.085 kg/m3; mass density (313.15 K, m1 = 0.05061): 995.543 ± 0.085 kg/m3; mass density (313.15 K, m1 = 0.05971): 996.132 ± 0.084 kg/m3; mass density (313.15 K, m1 = 0.07966): 997.418 ± 0.084 kg/m3

Question: With CC(C)C[C@H](NC(=O)CN)C(=O)NCC(=O)O [glycyl-L-leucylglycine] + O as the molecule, how does the mass density (288.15 K, m1 = 0.03052) read?
Answer: 1001.2 ± 0.085 kg/m3

Question: And the mass density (288.15 K, m1 = 0.04107)?
Answer: 1001.91 ± 0.086 kg/m3

Question: And the mass density (288.15 K, m1 = 0.05063)?
Answer: 1002.57 ± 0.085 kg/m3

Question: And the mass density (288.15 K, m1 = 0.06015)?
Answer: 1003.2 ± 0.086 kg/m3

Question: What about the mass density (288.15 K, m1 = 0.07034) of the same molecule?
Answer: 1003.9 ± 0.086 kg/m3

Question: And the mass density (288.15 K, m1 = 0.08092)?
Answer: 1004.6 ± 0.085 kg/m3

Question: What about the mass density (288.15 K, m1 = 0.09106) of the same molecule?
Answer: 1005.27 ± 0.085 kg/m3

Question: What about the mass density (288.15 K, m1 = 0.1008) of the same molecule?
Answer: 1005.92 ± 0.086 kg/m3

Question: What about the mass density (298.15 K, m1 = 0.01963) of the same molecule?
Answer: 998.372 ± 0.085 kg/m3

Question: What about the mass density (298.15 K, m1 = 0.03198) of the same molecule?
Answer: 999.201 ± 0.083 kg/m3

Question: What about the mass density (298.15 K, m1 = 0.04637) of the same molecule?
Answer: 1000.16 ± 0.082 kg/m3

Question: And the mass density (298.15 K, m1 = 0.0606)?
Answer: 1001.11 ± 0.085 kg/m3

Question: What about the mass density (298.15 K, m1 = 0.07265) of the same molecule?
Answer: 1001.9 ± 0.087 kg/m3

Question: What about the mass density (298.15 K, m1 = 0.08576) of the same molecule?
Answer: 1002.77 ± 0.084 kg/m3

Question: What about the mass density (298.15 K, m1 = 0.09698) of the same molecule?
Answer: 1003.5 ± 0.073 kg/m3

Question: And the mass density (303.15 K, m1 = 0.01876)?
Answer: 996.907 ± 0.09 kg/m3

Question: What about the mass density (303.15 K, m1 = 0.03847) of the same molecule?
Answer: 998.204 ± 0.084 kg/m3

Question: And the mass density (303.15 K, m1 = 0.04881)?
Answer: 998.896 ± 0.085 kg/m3

Question: And the mass density (303.15 K, m1 = 0.05715)?
Answer: 999.436 ± 0.083 kg/m3

Question: What about the mass density (303.15 K, m1 = 0.06905) of the same molecule?
Answer: 1000.22 ± 0.081 kg/m3

Question: What about the mass density (303.15 K, m1 = 0.07699) of the same molecule?
Answer: 1000.73 ± 0.087 kg/m3

Question: And the mass density (303.15 K, m1 = 0.08729)?
Answer: 1001.4 ± 0.085 kg/m3

Question: What about the mass density (303.15 K, m1 = 0.09709) of the same molecule?
Answer: 1002.03 ± 0.073 kg/m3

Question: And the mass density (313.15 K, m1 = 0.01926)?
Answer: 993.479 ± 0.086 kg/m3

Question: What about the mass density (313.15 K, m1 = 0.02873) of the same molecule?
Answer: 994.105 ± 0.085 kg/m3

Question: What about the mass density (313.15 K, m1 = 0.04912) of the same molecule?
Answer: 995.406 ± 0.085 kg/m3

Question: What about the mass density (313.15 K, m1 = 0.06755) of the same molecule?
Answer: 996.608 ± 0.084 kg/m3

Question: And the mass density (313.15 K, m1 = 0.07763)?
Answer: 997.232 ± 0.083 kg/m3

Question: What about the mass density (313.15 K, m1 = 0.0869) of the same molecule?
Answer: 997.826 ± 0.083 kg/m3

Question: And the mass density (313.15 K, m1 = 0.1005)?
Answer: 998.668 ± 0.082 kg/m3

Question: With CSCC[C@H](NC(=O)CN)C(=O)NCC(=O)O [glycyl-L-methionylglycine] + O as the molecule, how does the mass density (288.15 K, m1 = 0.02065) read?
Answer: 1000.96 ± 0.1 kg/m3

Question: What about the mass density (288.15 K, m1 = 0.02481) of the same molecule?
Answer: 1001.33 ± 0.1 kg/m3

Question: And the mass density (288.15 K, m1 = 0.03005)?
Answer: 1001.79 ± 0.1 kg/m3

Question: What about the mass density (288.15 K, m1 = 0.04038) of the same molecule?
Answer: 1002.71 ± 0.1 kg/m3

Question: What about the mass density (288.15 K, m1 = 0.05024) of the same molecule?
Answer: 1003.58 ± 0.1 kg/m3

Question: What about the mass density (288.15 K, m1 = 0.06017) of the same molecule?
Answer: 1004.46 ± 0.1 kg/m3

Question: And the mass density (288.15 K, m1 = 0.07183)?
Answer: 1005.48 ± 0.1 kg/m3

Question: What about the mass density (288.15 K, m1 = 0.07978) of the same molecule?
Answer: 1006.18 ± 0.1 kg/m3

Question: And the mass density (288.15 K, m1 = 0.0913)?
Answer: 1007.18 ± 0.11 kg/m3

Question: What about the mass density (303.15 K, m1 = 0.03024) of the same molecule?
Answer: 998.275 ± 0.14 kg/m3

Question: And the mass density (303.15 K, m1 = 0.03988)?
Answer: 999.096 ± 0.11 kg/m3

Question: And the mass density (303.15 K, m1 = 0.05998)?
Answer: 1000.82 ± 0.096 kg/m3

Question: What about the mass density (303.15 K, m1 = 0.06988) of the same molecule?
Answer: 1001.65 ± 0.097 kg/m3

Question: And the mass density (303.15 K, m1 = 0.07911)?
Answer: 1002.43 ± 0.099 kg/m3

Question: And the mass density (303.15 K, m1 = 0.08988)?
Answer: 1003.32 ± 0.11 kg/m3

Question: And the mass density (303.15 K, m1 = 0.1012)?
Answer: 1004.27 ± 0.1 kg/m3

Question: What about the mass density (313.15 K, m1 = 0.0199) of the same molecule?
Answer: 993.923 ± 0.1 kg/m3

Question: What about the mass density (313.15 K, m1 = 0.03002) of the same molecule?
Answer: 994.787 ± 0.1 kg/m3

Question: What about the mass density (313.15 K, m1 = 0.04003) of the same molecule?
Answer: 995.629 ± 0.1 kg/m3

Question: What about the mass density (313.15 K, m1 = 0.05041) of the same molecule?
Answer: 996.504 ± 0.1 kg/m3

Question: And the mass density (313.15 K, m1 = 0.061)?
Answer: 997.393 ± 0.1 kg/m3

Question: What about the mass density (313.15 K, m1 = 0.07039) of the same molecule?
Answer: 998.173 ± 0.1 kg/m3

Question: And the mass density (313.15 K, m1 = 0.08051)?
Answer: 999.015 ± 0.1 kg/m3

Source: the NIST ThermoML archive (doi:10.1016/j.jct.2009.05.011)
